In US20120171123A1, “USES AND COMPOSITIONS FOR TREATMENT OF RHEUMATOID ARTHRITIS” (priority 2006, published 2012):

Assays:
[1] = system: MTX-naïve adult patients with early RA (<3 years); assay: Study J: escalation of injectable medicine from eow to weekly dosing; type: in vivo, human; settings: for ACR20 following dosage escalation, % of all patients in arm / ACR70 following dosage escalation, % of all patients in arm / DAS28 < 2.6 following dosage escalation, % of all patients in arm / ACR60 following dosage escalation, % of all patients in arm: patients with no prior ACR20 response, NRI; for ACR50, % of responders / ACR70, % of responders: patients whose dosages of adalimumab or placebo injections were escalated; for patients who increased injectable medication to weekly: during year 1 (placebo injections in MTX arm)
Procedure: Study J was a 2-year, double-blind, active comparator-controlled, Phase III study. […] In patients receiving ADA+MTX or MTX monotherapy, the 7.5 mg MTX weekly dosage increased to 20 mg over 8 weeks, as tolerated and as needed. Monotherapy patients received either placebo pills (adalimumab arm) or placebo injections (MTX arm). Efficacy outcomes measured included ACR response, DAS28 remission, major clinical response, and radiographic change from baseline.
MTX optimization was required before starting weekly injections (to 20 mg weekly, maximum). Once initiated, weekly dosing of injectable medicine was to be maintained until end of study. Criteria for identification of dosage escalators were a sequence of 4 consecutive injections for which the interval for every two consecutive injections was ≦10 days, and/or that the date of escalation, defined as the second of the 4 injections, had to be on or after Week 16 in Year 1. Three dosage escalator categories were defined, based on best ACR response rate achieved any time prior to escalation: Group A=ACR non-responders (never achieved ACR20 prior to dosage escalation), Group B=Partial responders (achieved ACR20 or ACR50 at least once prior to escalation, but never ACR70), and Group C=ACR70 responders (achieved ACR70 at least once prior to escalation). Data are from the intention-to-treat (ITT) population, with missing data analyzed by non-responder imputation (NRI) for clinical measures and by linear imputation for total Sharp scores (TSS).

[2] = system: MTX-naïve adult patients with active, early RA (<3 years); assay: Study J: CRP normalization; type: in vivo, human; settings: for Patient numbers: CRP Abnormal at Baseline, Abnormal at 1 Year / Patient numbers: CRP Normal at Baseline, Abnormal at 1 Year: Abnormal CRP >0.8 mg/dL; for Patient numbers: CRP Abnormal at Baseline, Normal at 1 Year / Patient numbers: CRP Normal at Baseline, Normal at 1 Year: Normal CRP ≦0.8 mg/dL
Procedure: Baseline demographics and clinical characteristics of the patients enrolled in this study are described in Example 7. […] After 1 and 2 years of therapy, the percentages of patients with ACR90 responses, TJC=0, SJC=0, HAQ=0, morning stiffness=0 minutes, and normal CRP were determined. Data are from the intention-to-treat (ITT) population with imputation used for missing values. Results were compared with the percentages of patients who achieved DAS28<2.6 or a Major Clinical Response (MCR).
Radiographic progression was assessed by mean change from baseline in Total Sharp Score (TSS) and stratified into those with (ΔTSS>0.5) and without (Δ≦TSS 0.5). Patients were categorized as either having radiographic progression at 1 year (ΔTSS>0.5) or not (Δ≦TSS 0.5). A logistic regression model was used to identify predictors of radiographic disease progression by testing several baseline characteristics, including age, disease duration, RF status, TJC, SJC, joint erosions, and CRP. For analyses of CRP, patients were categorized as normal (CRP≦0.8 mg/dL) or abnormal (CRP>0.8 mg/dL).

Q: For `CN(Cc1cnc2nc(N)nc(N)c2n1)c1ccc(C(=O)N[C@@H](CCC(=O)O)C(=O)O)cc1` [mtx alone, methotrexate], which “ACR20 following dosage escalation, % of all patients in arm” value ([1]; 1 year) is on record?
A: 3.5%

Q: And the “ACR70 following dosage escalation, % of all patients in arm” value ([1]; 1 year)?
A: 0.8%

Q: And the “DAS28 < 2.6 following dosage escalation, % of all patients in arm” value ([1]; 1 year)?
A: 0.0%

Q: What about the “No radiographic progression, % of patients” value ([1]; 2 years, eow dosing) of the same compound?
A: 36.6%

Q: And the “ACR20 following dosage escalation, % of all patients in arm” value ([1]; 2 years)?
A: 3.6%

Q: And the “ACR70 following dosage escalation, % of all patients in arm” value ([1]; 2 years)?
A: 1.2%

Q: What about the “DAS28 < 2.6 following dosage escalation, % of all patients in arm” value ([1]; 2 years) of the same compound?
A: 0.8%

Q: What about the “No radiographic progression, % of patients” value ([1]; 2 years, weekly dosing) of the same compound?
A: 21.2%

Q: And the “ACR50, % of responders” value ([1]; Year 1)?
A: 17%

Q: And the “ACR70, % of responders” value ([1]; Year 1)?
A: 8%

Q: What about the “ACR50, % of responders” value ([1]; Year 2) of the same compound?
A: 21%

Q: What about the “ACR70, % of responders” value ([1]; Year 2) of the same compound?
A: 12%

Q: And the “patients who increased injectable medication to weekly” value [1]?
A: 20%

Q: And the “Normal CRP (≦0.8 mg/dL)” value ([2]; 1 year)?
A: 35 % patients

Q: What about the “patients with abnormal baseline CRP that became normal” value ([2]; 1 year, listed as MTX Alone) of the same compound?
A: 53% (n = 159)

Q: And the “patients with abnormal baseline CRP that became normal” value ([2]; 1 year, listed as MTX alone)?
A: 53%

Q: And the “Normal CRP (≦0.8 mg/dL)” value ([2]; 2 years)?
A: 29 % patients

Q: What about the “Patient numbers: CRP Abnormal at Baseline, Abnormal at 1 Year” value [2] of the same compound?
A: 75

Q: What about the “Patient numbers: CRP Normal at Baseline, Abnormal at 1 Year” value [2] of the same compound?
A: 7

Q: And the “Patient numbers: CRP Abnormal at Baseline, Normal at 1 Year” value [2]?
A: 84

Q: And the “Patient numbers: CRP Normal at Baseline, Normal at 1 Year” value [2]?
A: 21

Q: What does the source list for “adalimumab: human anti-TNF mAb (HUMIRA, Abbott Laboratories), described in U.S. Pat. No. 6,090,382 as D2E7”?
A: ACR20 following dosage escalation, % of all patients in arm ([1]; 1 year): 1.8%; ACR60 following dosage escalation, % of all patients in arm ([1]; 1 year): 1.6%; ACR70 following dosage escalation, % of all patients in arm ([1]; 1 year): 0 (0) %; DAS28 < 2.6 following dosage escalation, % of all patients in arm ([1]; 1 year): 0.4%; No radiographic progression, % of patients ([1]; 2 years, eow dosing): 48.8%; ACR20 following dosage escalation, % of all patients in arm ([1]; 2 years): 2.6%; ACR60 following dosage escalation, % of all patients in arm ([1]; 2 years): 0.4%; ACR70 following dosage escalation, % of all patients in arm ([1]; 2 years): 0.4%; DAS28 < 2.6 following dosage escalation, % of all patients in arm ([1]; 2 years): 0.4%; No radiographic progression, % of patients ([1]; 2 years, weekly dosing): 31.9%; ACR50, % of responders ([1]; Year 1): 17%; ACR70, % of responders ([1]; Year 1): 6%; ACR50, % of responders ([1]; Year 2): 16%; ACR70, % of responders ([1]; Year 2): 10%; patients who increased injectable medication to weekly [1]: 25%; Normal CRP (≦0.8 mg/dL) ([2]; 1 year): 34 % patients; patients with abnormal baseline CRP that became normal ([2]; 1 year, listed as Adalimumab Alone): 52% (n = 150); Normal CRP (≦0.8 mg/dL) ([2]; 2 years): 34 % patients; Patient numbers: CRP Abnormal at Baseline, Abnormal at 1 Year [2]: 72; Patient numbers: CRP Normal at Baseline, Abnormal at 1 Year [2]: 4; Patient numbers: CRP Abnormal at Baseline, Normal at 1 Year [2]: 78; Patient numbers: CRP Normal at Baseline, Normal at 1 Year [2]: 33
